Consider 22 molecules from ChEMBL document CHEMBL1131822, “Nonpeptidic HIV protease inhibitors: 6-alkyl-5,6-dihydropyran-2-ones possessing a novel and achiral 3-(2-t-butyl-5-methyl-4-sulfamate)phenylthio moiety” (Bioorg Med Chem Lett, 1999).

pEC50, pIC50, pKi: −log10 of the molar value. A value given as a limit tells only on which side of the number the result lay.

One may read the pEC50 as the EC50 on a negative log10 scale, so that one unit is a factor of ten. Usually inhibition stands for the drop in the measured response relative to a control, in per cent. A higher inhibition goes with strong suppression. As usually defined, the pKi is −log10 of the Ki, conventionally taken in molar units. The low end stands for a high Ki, the high end for a low Ki. As a reminder, the pIC50 is the IC50 on a negative log10 scale, so that one unit is a factor of ten.

Data set [1] has as its system Human immunodeficiency virus 1. Briefly: In vitro inhibition of HIV-1 (IIIB) cytopathic effects in CEM (human leukemia) cells. The class given is functional, organism-based. Particulars: Human immunodeficiency virus 1, CCRF-CEM. For orientation: Damage to the host cells serves as the signal in cytopathic effect assays.
The target of data set [2] is T1, CYP2C9 (Homo sapiens, UniProt P11712). Briefly: Inhibition of Cytochrome P450 2C9 at 10 uM. It counts as ADME.
Data set [3] deals with T2, Human immunodeficiency virus type 1 protease (Human immunodeficiency virus 1, UniProt Q72874). Briefly: Compound was tested for binding affinity against HIV protease.
For data set [4], the system named is CYP2D6. The data set can be described thus: Inhibition of Cytochrome P450 2D6 at 10 uM. The class given is ADME.
For data set [5], the system named is CYP2D6. The data set can be described thus: Inhibition of Cytochrome P450 2D6 at 100 uM. The class given is ADME.
Data set [6] addresses T3, CYP3A4 (Homo sapiens, UniProt P08684). Briefly: Inhibition of Cytochrome P450 3A4 at 10 uM. The class given is ADME.
The target in data set [7] is T1, CYP2C9. The data set can be described thus: Inhibition of Cytochrome P450 2C9 at 100 uM. It counts as ADME.
Data set [8] concerns the target T3, CYP3A4. The data set can be described thus: Inhibition of Cytochrome P450 3A4 at 1 uM. It counts as ADME.
Data set [9] has as its system CYP2D6. The data set can be described thus: Inhibition of Cytochrome P450 2D6 at 1 uM. It counts as ADME.
Data set [10] addresses T3, CYP3A4. The data set can be described thus: Inhibition of Cytochrome P450 3A4 at 100 uM. It counts as ADME.
The target of data set [11] is T2, Human immunodeficiency virus type 1 protease. The data set can be described thus: Tested in vitro for HIV protease (PR) binding affinity.
For data set [12], the target named is T1, CYP2C9. The data set can be described thus: Inhibition of Cytochrome P450 2C9 at 1 uM. It counts as ADME.
Data set [13] can be described thus: Therapeutic index was determined. The settings on record: read-out: Therapeutic index.
Data set [14] can be described thus: In vitro Cytotoxicity against uninfected CEM (human leukemia) cells. The class given is functional. Particulars: CCRF-CEM, read-out: TC50 (the source's name).

T1 sequence (P11712 whole entry): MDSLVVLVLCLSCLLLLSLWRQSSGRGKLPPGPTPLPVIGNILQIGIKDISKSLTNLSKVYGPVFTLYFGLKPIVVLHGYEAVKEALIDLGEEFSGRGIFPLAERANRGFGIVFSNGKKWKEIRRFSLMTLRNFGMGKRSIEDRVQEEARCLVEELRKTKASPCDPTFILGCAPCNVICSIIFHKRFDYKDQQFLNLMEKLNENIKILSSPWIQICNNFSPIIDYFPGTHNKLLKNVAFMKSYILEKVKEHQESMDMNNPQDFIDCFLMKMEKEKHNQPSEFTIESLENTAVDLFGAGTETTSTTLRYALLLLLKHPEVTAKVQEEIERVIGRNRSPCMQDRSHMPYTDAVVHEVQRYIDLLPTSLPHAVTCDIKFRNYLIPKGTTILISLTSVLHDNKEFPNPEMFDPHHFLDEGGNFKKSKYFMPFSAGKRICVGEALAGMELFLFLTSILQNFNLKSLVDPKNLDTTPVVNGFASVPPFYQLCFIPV
T3 sequence (P08684 whole entry): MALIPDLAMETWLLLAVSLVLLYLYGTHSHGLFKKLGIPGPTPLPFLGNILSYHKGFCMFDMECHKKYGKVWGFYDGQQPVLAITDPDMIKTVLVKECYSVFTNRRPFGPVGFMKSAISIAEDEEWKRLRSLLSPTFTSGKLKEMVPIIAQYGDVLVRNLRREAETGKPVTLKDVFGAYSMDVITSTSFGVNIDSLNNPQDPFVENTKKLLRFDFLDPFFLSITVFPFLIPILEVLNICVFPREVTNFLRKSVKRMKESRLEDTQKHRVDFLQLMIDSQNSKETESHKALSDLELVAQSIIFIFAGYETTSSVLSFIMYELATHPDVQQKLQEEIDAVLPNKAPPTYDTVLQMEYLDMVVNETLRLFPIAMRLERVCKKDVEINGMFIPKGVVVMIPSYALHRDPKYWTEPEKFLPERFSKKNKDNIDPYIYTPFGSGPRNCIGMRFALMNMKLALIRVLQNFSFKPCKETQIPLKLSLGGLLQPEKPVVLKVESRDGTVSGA

In the case of `Cc1cc(SC2=C(O)O[C@](CCc3ccc(N)cc3)(C(C)C)CC2=O)c(C(C)(C)C)cc1CO`, in [1], the pEC50 was 6.70. Further, the inhibition at 10 µM in [2] worked out at 12%; in data set [4], 16%; in data set [6] it was 16%. In data set [3], this molecule gave a pKi of 9.96. Moreover, the inhibition at 100 µM came to 33% in data set [5], 59% in data set [7] and 30% in [10]. Besides, the inhibition at 1 µM in data set [8] is 4%; in data set [9], 3%; in data set [12], 2%. In addition, the pIC50 in [11] was 9.00. Moreover, the selectivity ratio in data set [13] came to 1050.
In data set [1], `Cc1cc(SC2=C(O)OC(CCc3ccc(O)cc3)(C(C)C)CC2=O)c(C(C)(C)C)cc1OS(=O)(=O)N1CCOCC1` (configuration not stated) showed a pEC50 of 6.11. In data set [14], the CC50 was found to be 84000 nM. In data set [11], this molecule had a pIC50 of 8.59. Also, the selectivity ratio in data set [13] was found to be 109.
Consider `CCNS(=O)(=O)Oc1cc(C(C)(C)C)c(SC2=C(O)OC(CCc3ccc(N)cc3)(C(C)C)CC2=O)cc1C` (configuration not stated), for which the negative logarithm of the EC50 (pEC50) in data set [1] was 6.20. The CC50 in [14] came to 74000 nM. This molecule had a pIC50 in [11] of 8.37. For the same molecule, the selectivity ratio in data set [13] came out at 117.
The like results for `CCNS(=O)(=O)Oc1cc(C(C)(C)C)c(SC2=C(O)OC(CCc3ccc(O)cc3)(C3CCCCC3)CC2=O)cc1C` (configuration not stated) were, in that order, 5.85, 67000 nM, 8.32 and 48.
The like results for `Cc1cc(SC2=C(O)OC(CCc3ccc(N)cc3)(C(C)C)CC2=O)c(C(C)(C)C)cc1OS(=O)(=O)N(C)C` (configuration not stated) were, in that order, 6.13, 64000 nM, 8.41 and 86.
The like results for `Cc1cc(SC2=C(O)OC(CCc3ccc(N)cc3)(C(C)C)CC2=O)c(C(C)(C)C)cc1OS(=O)(=O)N1CCN(C)CC1` (configuration not stated) were, in that order, 6.25, 71000 nM, 9.00 and 127.
Regarding `CCCNS(=O)(=O)Oc1cc(C(C)(C)C)c(SC2=C(O)OC(C)(CCc3ccc(O)cc3)CC2=O)cc1C` (configuration not stated), the pEC50 in data set [1] is 5.37. In addition, the CC50 in data set [14] is 66000 nM. In [11], the pIC50 was 8.21. Further, the selectivity ratio in data set [13] worked out at 15.
In turn, `Cc1cc(SC2=C(O)OC(CCc3ccc(O)cc3)(C(C)C)CC2=O)c(C(C)(C)C)cc1OS(=O)(=O)N(C)C` (configuration not stated) gave a pEC50 in data set [1] of 6.15. Moreover, the CC50 in [14] is 70000 nM. The pIC50 in data set [11] is 8.47. The selectivity ratio in [13] was 100.
As for `Cc1cc(SC2=C(O)OC(C)(CCc3ccc(O)cc3)CC2=O)c(C(C)(C)C)cc1O` (configuration not stated), the pEC50 in [1] was under 5.15. The CC50 in data set [14] worked out at 7000 nM. For the same molecule, the pIC50 in data set [11] was 8.19. Also, the selectivity ratio in data set [13] is under 1.
With `CCNS(=O)(=O)Oc1cc(C(C)(C)C)c(SC2=C(O)OC(CCc3ccccc3)(C(C)C)CC2=O)cc1C` (configuration not stated), the negative-log EC50 (pEC50) in [1] is 6.11. In data set [14], the CC50 was found to be 67000 nM. For the same molecule, the pIC50 in data set [11] was 8.05. The selectivity ratio in data set [13] stood at 87.
Molecule `Cc1cc(SC2=C(O)OC(CCc3ccccc3)(C(C)C)CC2=O)c(C(C)(C)C)cc1OS(=O)(=O)N1CCN(C)CC1` (configuration not stated) gave a pEC50 in [1] of 5.78. The CC50 in data set [14] is over 100000 nM. In data set [11], the pIC50 is 8.41. Besides, in [13], the selectivity ratio is over 61.
Consider `Cc1cc(SC2=C(O)OC(C)(CCc3ccc(O)cc3)CC2=O)c(C(C)(C)C)cc1OS(=O)(=O)N(C)C` (configuration not stated), for which the pEC50 in data set [1] is 5.09. Besides, in [14], the CC50 was over 100000 nM. This molecule showed a pIC50 in data set [11] of 8.80. Further, the selectivity ratio in data set [13] is over 12.
`CCCNS(=O)(=O)Oc1cc(C(C)(C)C)c(SC2=C(O)OC(CCc3ccc(O)cc3)(C(C)C)CC2=O)cc1C` (configuration not stated) had a pEC50 in [1] of 5.92. Besides, in [14], the CC50 is over 100000 nM. The molecule also showed a pIC50 in [11] of 8.52. For the same molecule, the selectivity ratio in data set [13] is over 83.
In data set [1], `Cc1cc(SC2=C(O)OC(C)(CCc3ccc(O)cc3)CC2=O)c(C(C)(C)C)cc1OS(=O)(=O)N1CCN(C)CC1` (configuration not stated) had a pEC50 of 5.64. Moreover, the CC50 in [14] is over 100000 nM. For the same molecule, the pIC50 in data set [11] was 8.15. Moreover, the selectivity ratio in data set [13] was over 44.
Consider `CCNS(=O)(=O)Oc1cc(C(C)(C)C)c(SC2=C(O)OC(CCc3ccc(O)cc3)(C(C)C)CC2=O)cc1C` (configuration not stated), for which the pEC50 in data set [1] is 5.96. For the same molecule, in data set [14], the CC50 was over 100000 nM. Also, in data set [11], the pIC50 is 8.31. The selectivity ratio in data set [13] is over 91.
The like results for `CNS(=O)(=O)Oc1cc(C(C)(C)C)c(SC2=C(O)OC(CCc3ccc(O)cc3)(C(C)C)CC2=O)cc1C` (configuration not stated) were, in that order, 5.96, over 100000 nM, 8.92 and over 91.
On the same counts, the results for `CCNS(=O)(=O)Oc1cc(C(C)(C)C)c(SC2=C(O)OC(CCc3ccc(O)cc3)(c3ccccc3)CC2=O)cc1C` (configuration not stated) are 5.37, 66000 nM, 7.59 and 15.
On to `Cc1cc(SC2=C(O)OC(C)(CCc3ccc(O)cc3)CC2=O)c(C(C)(C)C)cc1OS(N)(=O)=O` (configuration not stated), for which, in data set [1], the pEC50 is 5.28. The CC50 in data set [14] worked out at 69000 nM. This molecule gave a pIC50 in [11] of 8.74. Further, the selectivity ratio in data set [13] stood at 13.
In the case of `CCNS(=O)(=O)Oc1cc(C(C)(C)C)c(SC2=C(O)OC(C)(CCc3ccc(O)cc3)CC2=O)cc1C` (configuration not stated), the pEC50 in data set [1] was 5.82. Further, the inhibition at 10 µM in data set [2] was determined as 6%; in data set [4], 89%; in [6], 10%. In data set [14], the CC50 was determined as 66000 nM. For the same molecule, the inhibition at 100 µM is 100% in data set [5], 46% in [7] and 58% in [10]. In addition, the inhibition at 1 µM in [8] was determined as 1%; in data set [9], 62%; in data set [12], 0%. This molecule also gave a pIC50 in [11] of 8.64. Besides, the selectivity ratio in data set [13] stood at 44.
In turn, `Cc1cc(SC2=C(O)OC(CCc3ccc(O)cc3)(C(C)C)CC2=O)c(C(C)(C)C)cc1OS(=O)(=O)N1CCN(C)CC1` (configuration not stated) gave a pEC50 in [1] of 6.30. Besides, the inhibition at 10 µM in data set [4] is 86%; in [6], 22%. The CC50 in data set [14] was over 100000 nM. Moreover, the inhibition at 100 µM was found to be 100% in data set [5] and 81% in data set [10]. Further, the inhibition at 1 µM came out at 0% in [8] and 39% in data set [9]. In data set [11], this molecule had a pIC50 of 8.51. The selectivity ratio in [13] was over 200.
`Cc1cc(SC2=C(O)OC(CCc3ccc(O)cc3)(C3CCCCC3)CC2=O)c(C(C)(C)C)cc1OS(=O)(=O)N1CCN(C)CC1` (configuration not stated): the pEC50 in [1] was 5.29. For the same molecule, in [14], the CC50 was over 100000 nM. Besides, the pIC50 in data set [11] is 8.01. Also, in data set [13], the selectivity ratio is over 20.
Take `Cc1cc(SC2=C(O)OC(CCc3ccc(O)cc3)(C3CCCCC3)CC2=O)c(C(C)(C)C)cc1OS(=O)(=O)N(C)C` (configuration not stated): the pEC50 in [1] was 5.30. In addition, in data set [14], the CC50 turned out to be 60000 nM. This molecule also had a pIC50 in data set [11] of 7.70. Besides, the selectivity ratio in data set [13] worked out at 12.
